One assay has as its system cspA promoter. Briefly: Stress response assay, cold shock response (PcspA-gfp) indicating translation inhibition. The class given is cell-based, E. coli. The following applies: GFP under cspA promoter, relative to inactive control HNP-1; one sided t-test, adj. p<0.05. The source says:
Lastly, the inventors characterized the 50 most growth inhibitory (38 SIMILARS, 12 PARENTS) peptides using different assays (FIG.18). The inventors first used two biosensor constructs, containing the cspA and recA promoters, which upon activation are indicative of translation impairment and DNA damage, respectively. […] Next, the inventors measured membrane damage by quantifying propidium iodide (PI) uptake.
The inventors selected peptide-expressing strains of rank 1-50, previously generated for the monoseptic growth assay. […] Moreover, two plasmids (cloning vector: puA66) containing either the promoter of the gene for recombinase A (PrecA) or for the gene for cold shock protein A (PcspA) were purified from the E. coli Alon collection. Both plasmids contained a transcriptional fusion of their promoter with a downstream gene for green fluorescent protein (gfp), an additional kanamycin resistance cassette and a pSC101 origin of replication. […] The inventors recorded OD and GFP expression (λEx 488 nm/λEm 530nm) after 1.5 h and 4.5 h using a Tecan Infinite 200 PRO (37 °C, 1.5 mm orbital shaking). For each strain, the inventors calculated the specific fluorescence change between the two time points (GFP/OD (4.5 h) - GFP/OD (1.5 h)). Statistical significance was calculated by one sided t-tests, adjusted for multiple testing by Benjamini-Hochberg, using the signal of HNP-13425 APD

Assay [1] relates to other clinically relevant Gram negative and positive bacteria. The assay is described as follows: Minimal inhibitory concentration (MIC) against other strains. The class given is cell-based. The following applies: range over the strains tested (FIG.21).

In the case of VDKGGYLPRPTPPRPVYR [ID 7122], the translational impairment result in the assay with cspA promoter is on record as “strongest indication for translational impairment”.
For orientation: MIC means the lowest concentration that inhibits growth of the organism. Low values mean greater potency, high ones weaker potency. “GWFKKAWRKVKHAGRRVLDTAKGVGRHYLNNWLNRYR [ID 4545]” yielded an MIC in assay [1] of 0.4 to 5.6 µM.

Values taken from patent EP4112728A1, “METHOD FOR I[…]-BINDING PEPTIDES” (ETH Zürich, priority 2021, dated 2023).
